Results on six compounds are retold here after article PMC4623676, “Methylation mediated by an anthocyanin, O-methyltransferase, is involved in purple flower coloration in Paeonia” (Journal of Experimental Botany, 2015).

The subject of assay [1] is T1, PsAOMT.
T1 construct: gene AOMT; dimer in solution; Leu-87; differs from PtAOMT at positions 13 (E), 85 (A), 87 (L), 205 (R)
Nature of the assay: HPLC of methylated product. The format is biochemical, Paeonia suffruticosa. The settings on record: 200 μM SAM, 1.0 mM MgCl2, 14 mM β-mercaptoethanol, 100 mM Tris/HCl pH 7.5, 35 °C; MBP fusion; read-out: PsAOMT / K m. An excerpt:
HPLC of methylated product on PsAOMT

Assay [2] has as its system T2, PtAOMT.
T2 construct: gene AOMT; dimer in solution; Arg-87; Gly-13, Thr-85, Thr-205
Briefly: HPLC of methylated product. The class given is biochemical, Paeonia tenuifolia. The settings on record: 200 μM SAM, 1.0 mM MgCl2, 14 mM β-mercaptoethanol, 100 mM Tris/HCl pH 7.5, 35 °C; MBP fusion. An excerpt:
HPLC of methylated product on PtAOMT | K m of PtAOMT-R87L for Cy3G was slightly lower than its K m for Cy3G5G

Molecules are shown by their SMILES.

For `OC[C@H]1O[C@@H](Oc2cc3c(O[C@@H]4O[C@H](CO)[C@@H](O)[C@H](O)[C@H]4O)cc(O)cc3[o+]c2-c2ccc(O)c(O)c2)[C@H](O)[C@@H](O)[C@@H]1O` [Cy3G5G, Cyanidin 3,5-di-O-glucoside], the Km is 1.06 µM in assay [1] and 8.51 ± 1.39 µM in assay [2]. For the compound `OC[C@H]1O[C@@H](Oc2cc3c(O)cc(O)cc3[o+]c2-c2ccc(O)c(O)c2)[C@H](O)[C@@H](O)[C@@H]1O` [Cy3G, Cyanidin 3-O-glucoside], the figures for the Km in assay [1] and in assay [2] were 1.76 µM and 3.53 ± 0.31 µM, respectively. For the compound `OC[C@H]1O[C@@H](Oc2cc3c(O)cc(O)cc3[o+]c2-c2cc(O)c(O)c(O)c2)[C@H](O)[C@@H](O)[C@@H]1O` [Dp3G, Delphinidin 3-O-glucoside], the Km in assay [1] turned out to be 4.11 µM. The same measure, in the same setting: in the case of `O=c1cc(-c2ccc(O)c(O)c2)oc2cc(O[C@@H]3O[C@H](CO)[C@@H](O)[C@H](O)[C@H]3O)cc(O)c12` [Lu7G, Luteolin 7-O-glucoside] it was 146 µM; in that of `C[C@@H]1O[C@@H](OC[C@H]2O[C@@H](Oc3c(-c4ccc(O)c(O)c4)oc4cc(O)cc(O)c4c3=O)[C@H](O)[C@@H](O)[C@@H]2O)[C@H](O)[C@H](O)[C@H]1O` [Qu3R, Quercetin 3-O-rutinoside], 12.3 µM; in that of `O=c1c(O)c(-c2ccc(O)c(O)c2)oc2cc(O)cc(O)c12` [Quercetin], 4.33 µM.
